Experimental findings from ChEMBL document CHEMBL1201862, “PubChem BioAssay data set” (2004) are described below.

One experiment concerns the target T1, Protein RecA (Mycobacterium tuberculosis, UniProt P9WHJ3).
T1 sequence (P9WHJ3 whole entry): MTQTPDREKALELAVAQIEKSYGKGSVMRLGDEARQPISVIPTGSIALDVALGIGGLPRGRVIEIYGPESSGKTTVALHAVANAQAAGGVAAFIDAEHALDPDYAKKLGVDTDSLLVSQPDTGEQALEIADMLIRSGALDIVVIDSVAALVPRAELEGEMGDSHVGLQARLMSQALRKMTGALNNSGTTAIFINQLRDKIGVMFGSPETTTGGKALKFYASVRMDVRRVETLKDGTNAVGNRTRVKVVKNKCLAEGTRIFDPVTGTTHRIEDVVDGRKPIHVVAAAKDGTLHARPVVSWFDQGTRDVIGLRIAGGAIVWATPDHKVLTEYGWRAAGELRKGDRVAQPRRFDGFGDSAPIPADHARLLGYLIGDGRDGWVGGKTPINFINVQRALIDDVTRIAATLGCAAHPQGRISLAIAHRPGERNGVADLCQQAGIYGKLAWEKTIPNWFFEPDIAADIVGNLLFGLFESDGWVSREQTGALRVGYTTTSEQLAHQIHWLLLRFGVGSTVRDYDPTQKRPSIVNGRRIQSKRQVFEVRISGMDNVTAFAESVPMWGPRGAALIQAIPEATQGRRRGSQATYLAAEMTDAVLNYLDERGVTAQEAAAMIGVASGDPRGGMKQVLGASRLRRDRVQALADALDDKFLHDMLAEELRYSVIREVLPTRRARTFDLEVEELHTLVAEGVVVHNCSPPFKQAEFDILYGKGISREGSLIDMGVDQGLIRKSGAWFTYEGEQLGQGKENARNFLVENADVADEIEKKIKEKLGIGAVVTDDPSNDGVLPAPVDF
The experiment can be described thus: Fluorescence Cell-Free Homogeneous Dose Retest to Identify Inhibitors of RecA-Intein Splicing Activity. [Related pubchem assays (depositor defined):AID2097, AID2223, AID489010, AID492950]. The experiment is classed as functional.

Experiment [1] can be described thus: THP-1 cell cytotoxicity, dose response, cytotoxicity control for Vif-APOBEC3G degradation inhibitor project, THP-1 cells (AID 1117359). The experiment is classed as functional. The note with it: Human immunodeficiency virus 1, THP-1.
In another experiment the target is Protein Tat (Human immunodeficiency virus type 1 group M subtype B (isolate HXB2)(HIV-1), UniProt P04608). Type of experiment: functional.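 Also: tat binding to TAR RNA read out by fluorescence polarization.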
Chain of Protein Tat (P04608 whole entry): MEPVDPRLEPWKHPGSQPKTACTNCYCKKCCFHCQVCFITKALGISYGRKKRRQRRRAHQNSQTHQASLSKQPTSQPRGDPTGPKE
Experiment [2] has as its target T2, Replicative DNA helicase DnaB (Mycobacterium tuberculosis, UniProt P9WMR3).
T2 sequence (P9WMR3 whole entry): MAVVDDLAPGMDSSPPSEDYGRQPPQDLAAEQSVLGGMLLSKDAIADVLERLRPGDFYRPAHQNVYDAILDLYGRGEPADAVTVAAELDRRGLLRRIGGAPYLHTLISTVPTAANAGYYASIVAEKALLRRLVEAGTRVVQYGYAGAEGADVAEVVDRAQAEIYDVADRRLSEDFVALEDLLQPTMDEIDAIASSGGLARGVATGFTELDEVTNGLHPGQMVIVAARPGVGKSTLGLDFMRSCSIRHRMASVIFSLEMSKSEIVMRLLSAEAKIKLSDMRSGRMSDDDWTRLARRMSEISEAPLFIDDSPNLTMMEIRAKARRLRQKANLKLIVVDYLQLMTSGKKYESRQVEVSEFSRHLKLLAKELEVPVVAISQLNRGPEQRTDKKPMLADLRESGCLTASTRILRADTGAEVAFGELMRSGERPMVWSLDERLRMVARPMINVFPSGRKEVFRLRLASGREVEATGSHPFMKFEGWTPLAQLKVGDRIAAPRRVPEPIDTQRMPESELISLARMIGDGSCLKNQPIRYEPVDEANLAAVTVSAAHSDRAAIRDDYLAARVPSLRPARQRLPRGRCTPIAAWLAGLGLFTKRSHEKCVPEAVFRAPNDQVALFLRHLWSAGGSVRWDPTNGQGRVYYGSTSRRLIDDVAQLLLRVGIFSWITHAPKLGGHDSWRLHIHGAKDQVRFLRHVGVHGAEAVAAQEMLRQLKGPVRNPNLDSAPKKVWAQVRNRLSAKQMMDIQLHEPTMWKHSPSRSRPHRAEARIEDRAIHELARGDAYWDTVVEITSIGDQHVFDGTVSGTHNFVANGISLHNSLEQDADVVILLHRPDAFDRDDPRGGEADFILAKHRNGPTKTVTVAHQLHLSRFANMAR
The experiment can be described thus: DnaB intein splicing inhibitors, dose response, biochemical, cell-free fluorescence (AID 449749). Type of experiment: functional.

Experiment [3] concerns the target Mitogen-activated protein kinase 10 (Homo sapiens, UniProt P53779). Nature of the experiment: Dose response biochemical screening assay for inhibitors of c-Jun N-Terminal Kinase 3 (JNK3). [Related pubchem assays: 746 ].
A short description of experiment [4]: HeLa 2N DNA content increase, dose response, cell-based, IC50 (AID 1117349). Type of experiment: functional.
A short description of experiment [5]: RKO cell viability reduction, dose response, CellTiter-Glo luminescence (AID 1117322). Type of experiment: functional. For orientation: Cellular ATP, detected with luciferase, serves as a proxy for viable cell number.
Experiment [6] can be described thus: HCT116 cell viability decrease, GSK3B pretreatment – CellTiter-Glo, IC50, dose response (AID 1117339). The note with it: HCT-116. The experiment is classed as functional.
Experiment [7] is described as follows: cytotoxicity toward HT-29 cells – cell-based, CellTiter-Glo luminescence, IC50, dose response (AID 1117330). The experiment is classed as functional.
A short description of experiment [8]: CellTiter-Glo luminescent dose response of DLD-1 viability loss (AID 1117352). Type of experiment: functional.
Experiment [9] is described as follows: Concentration-dependent survival of SW480 colon cancer line, luminescence detection with CellTiter-Glo, half-maximal inhibitory concentration (AID 1117338). Type of experiment: functional.
The nature of experiment [10]: cytotoxicity toward HCT116 cells – cell-based, CellTiter-Glo luminescence, IC50, dose response (AID 1117332). The experiment is classed as functional. The note with it: HCT-116.
Experiment [11] in a line: SNU-C1 cell viability reduction, dose response, CellTiter-Glo luminescence (AID 1117323). The experiment is classed as functional, cell-based.
Experiment [12] is described as follows: HeLa 4N DNA content increase, dose response, cell-based, IC50 (AID 1117351). The experiment is classed as functional.
Experiment [13] is described as follows: cytotoxicity toward Colo320 cells – cell-based, CellTiter-Glo luminescence, IC50, dose response (AID 1117334). The experiment is classed as functional. Particulars: COLO 320.
Experiment [14] deals with Ubiquitin carboxyl-terminal hydrolase BAP1 (Homo sapiens, UniProt Q92560). The experiment can be described thus: BAP1 deubiquitinase inhibitors, dose response, biochemical (AID 714). Type of experiment: functional.
Chain of Ubiquitin carboxyl-terminal hydrolase BAP1 (Q92560 whole entry): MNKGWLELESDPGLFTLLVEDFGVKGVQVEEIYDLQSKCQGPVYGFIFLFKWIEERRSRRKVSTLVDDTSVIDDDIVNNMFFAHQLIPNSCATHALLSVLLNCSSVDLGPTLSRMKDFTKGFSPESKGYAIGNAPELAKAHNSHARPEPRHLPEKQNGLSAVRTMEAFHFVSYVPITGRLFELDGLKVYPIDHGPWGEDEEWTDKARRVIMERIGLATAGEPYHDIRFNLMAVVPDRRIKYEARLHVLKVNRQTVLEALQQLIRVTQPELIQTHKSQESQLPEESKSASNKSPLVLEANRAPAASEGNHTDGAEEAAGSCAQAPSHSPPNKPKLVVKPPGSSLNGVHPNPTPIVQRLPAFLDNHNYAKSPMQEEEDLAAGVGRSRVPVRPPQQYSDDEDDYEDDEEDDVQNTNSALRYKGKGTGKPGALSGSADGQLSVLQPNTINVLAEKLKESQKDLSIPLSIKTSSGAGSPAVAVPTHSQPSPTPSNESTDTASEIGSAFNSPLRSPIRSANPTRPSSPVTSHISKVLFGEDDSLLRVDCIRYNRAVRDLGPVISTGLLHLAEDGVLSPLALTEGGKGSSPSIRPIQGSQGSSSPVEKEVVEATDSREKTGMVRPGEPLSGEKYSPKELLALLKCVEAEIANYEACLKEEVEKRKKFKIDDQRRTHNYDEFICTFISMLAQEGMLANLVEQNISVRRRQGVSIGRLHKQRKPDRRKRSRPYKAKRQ
Experiment [15] has as its target T3, Long-chain-fatty-acid--AMP ligase FadD28 (Mycobacterium tuberculosis, UniProt P9WQ59).
T3 sequence (P9WQ59 whole entry): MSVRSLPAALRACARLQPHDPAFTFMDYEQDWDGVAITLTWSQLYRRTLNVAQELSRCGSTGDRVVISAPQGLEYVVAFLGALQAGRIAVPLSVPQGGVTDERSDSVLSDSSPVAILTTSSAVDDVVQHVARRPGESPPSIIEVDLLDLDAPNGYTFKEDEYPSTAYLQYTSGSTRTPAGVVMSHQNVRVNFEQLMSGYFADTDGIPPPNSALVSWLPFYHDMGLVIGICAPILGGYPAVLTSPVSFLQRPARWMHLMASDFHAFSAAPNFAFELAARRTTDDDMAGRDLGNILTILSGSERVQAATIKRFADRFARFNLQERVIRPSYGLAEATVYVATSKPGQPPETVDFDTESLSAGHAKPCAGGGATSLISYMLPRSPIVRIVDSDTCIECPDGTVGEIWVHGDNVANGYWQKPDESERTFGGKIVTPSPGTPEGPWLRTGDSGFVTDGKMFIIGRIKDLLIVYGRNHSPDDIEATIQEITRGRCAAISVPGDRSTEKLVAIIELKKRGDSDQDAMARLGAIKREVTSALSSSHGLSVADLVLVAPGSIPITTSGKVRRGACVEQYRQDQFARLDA
The experiment can be described thus: Fluorescence polarization aasay to screen for inhibitors that compete for the binding of FadD28 to a bisubstrate Measured in Biochemical System Using Plate Reader - 2147-01_Inhibitor_Dose_CherryPick_Activity. The experiment is classed as functional, Mycobacterium tuberculosis H37Rv.

For experiment [16], the target named is Glutathione-S-transferase (Schistosoma japonicum, UniProt Q26513). The experiment can be described thus: biotin-GST/anti-GST TR-FRET signal inhibitors, dose response, artefact control for Vif-APOBEC3G degradation inhibitor project, biochemical (AID 1117362). The experiment is classed as functional.
Chain of Glutathione-S-transferase (Q26513 whole entry): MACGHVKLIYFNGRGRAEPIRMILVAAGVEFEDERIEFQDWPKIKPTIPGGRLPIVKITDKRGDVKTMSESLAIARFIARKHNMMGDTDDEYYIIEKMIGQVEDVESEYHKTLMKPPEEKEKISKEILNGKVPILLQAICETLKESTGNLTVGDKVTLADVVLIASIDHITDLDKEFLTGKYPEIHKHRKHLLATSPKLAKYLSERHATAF
Experiment [17] deals with Induced myeloid leukemia cell differentiation protein Mcl-1 (Homo sapiens, UniProt Q07820). The experiment is classed as functional.
Chain of Induced myeloid leukemia cell differentiation protein Mcl-1 (Q07820 whole entry): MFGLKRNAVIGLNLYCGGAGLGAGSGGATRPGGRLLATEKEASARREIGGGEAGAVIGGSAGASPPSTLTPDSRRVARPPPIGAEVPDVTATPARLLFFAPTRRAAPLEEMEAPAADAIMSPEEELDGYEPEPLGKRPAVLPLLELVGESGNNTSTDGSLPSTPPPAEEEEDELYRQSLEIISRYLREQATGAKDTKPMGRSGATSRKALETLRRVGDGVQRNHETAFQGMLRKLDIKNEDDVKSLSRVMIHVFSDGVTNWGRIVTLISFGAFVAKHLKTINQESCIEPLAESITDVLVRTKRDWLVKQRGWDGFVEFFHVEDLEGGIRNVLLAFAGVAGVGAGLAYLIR
Experiment [18] is described as follows: Dose-response inhibition of insulin secretion in a rat insulinoma line at 5 mM glucose (AID 1117331). Type of experiment: functional, cell-based. The note with it: INS-1E.
Another experiment can be described thus: cells. Type of experiment: functional, cell-based. Particulars: INS-1E.
Experiment [19] in a line: M. tuberculosis growth inhibition, HTS (AID 449762). The experiment is classed as functional.

SMILES strings stand for the structures. Structures can show the parent of a compound that is named as a salt. The source made the active and inactive calls.

For orientation: EC50 means the concentration at which the effect is half-maximal. As usually defined, the CC50 is the concentration at which the toxic effect on the cells reaches its halfway point. As usually defined, the IC50 is the midpoint of a concentration-inhibition curve. As usually defined, the AC50 is the concentration at which the activity in the assay is half-maximal.

Chain of Mitogen-activated protein kinase 10 (P53779 whole entry): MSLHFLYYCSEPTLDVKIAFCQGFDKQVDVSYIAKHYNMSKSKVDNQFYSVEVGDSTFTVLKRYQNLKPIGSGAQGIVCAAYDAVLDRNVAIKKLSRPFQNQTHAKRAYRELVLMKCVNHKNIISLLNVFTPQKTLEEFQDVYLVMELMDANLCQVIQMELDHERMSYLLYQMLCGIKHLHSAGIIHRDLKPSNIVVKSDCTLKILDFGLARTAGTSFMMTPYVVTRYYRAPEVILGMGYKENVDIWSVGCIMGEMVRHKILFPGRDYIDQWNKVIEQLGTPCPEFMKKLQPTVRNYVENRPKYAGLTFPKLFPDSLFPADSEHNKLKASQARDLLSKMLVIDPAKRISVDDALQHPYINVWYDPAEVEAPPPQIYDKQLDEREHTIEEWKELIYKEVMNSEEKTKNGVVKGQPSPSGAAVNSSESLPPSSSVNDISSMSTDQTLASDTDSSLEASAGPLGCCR

Consider `CC1=CC(C)(C)N2C(=O)/C(=N/c3ccc(O)cc3)c3cccc1c32`, for which the EC50 on Protein RecA was > 380 µM (inactive). For the same molecule, in experiment [1], the CC50 was 9.38 µM (active). For the same molecule, the IC50 on Protein Tat is > 100 µM (active). Besides, in [2], the AC50 is > 380 µM (inactive).
Regarding `Cc1ccccc1-n1nc(C)c2cc(C(=O)N3CCOCC3)sc21`, the IC50 in experiment [3] is given as > 93.1 µM (not active).
As to `Cc1nc(N)nc(N)c1-c1ccc(Cl)c(Cl)c1` [METOPRINE], the IC50 in experiment [4] was > 10 µM (inactive); in experiment [5], 0.117 µM (active); in [6], 0.0589 µM (active); in [7], 0.932 µM (active); in [8] it was 0.634 µM (active); in [9], 0.512 µM (active). Further, the half-inhibitory concentration (IC50) in [10] is 0.413 µM (active); in experiment [11], 2.16 µM (active); in experiment [12], > 10 µM (inactive); in experiment [13], 2.03 µM (active).
As for `CC1CCCN(S(=O)(=O)c2ccc(NC(=O)Cn3nnc(-c4ccccc4F)n3)cc2)C1` (configuration not stated), the IC50 in [14] is listed as 41.6 µM (not active). Besides, the AC50 in experiment [15] is > 100 µM (inactive).
Turning to `COc1ccc(O)c(N)c1`, the IC50 is > 100 µM (active) in [16] and 1.53 µM (active) in experiment [17].
Consider `NC[C@H]1CC[C@H](C(=O)Oc2ccc(CCC(=O)O)cc2)CC1` [CETRAXATE HYDROCHLORIDE], for which the IC50 (in experiment [18]; in the experiment “cells”) was > 33.3 µM (inactive) in each case.
For `CC(C)(C)c1nc2sc3c(c2c(=O)o1)CCCC3`, the IC50 in experiment [19] was > 100 µM (active).
